Measured values published in patent US11583890B2, “Low temperature curing 1K basecoat and method to coat a substrate with the 1K basecoat” (BASF Coatings GmbH, priority 2017, dated 2023).

How the values were obtained:
[1] = pKa of amines and of their methylol adducts with formaldehyde
Description: The availability of the base electron pair is influenced by the steric environment presented by the groups (R′, R″ and CH2OH) bonded to the N and any electronic influence of those same groups.

physchem = assay type: physicochemical; details: pH 8
Description: One of ordinary skill will recognize that log P is a guideline tool for assessing amine candidates, since actual migration to the clear coat layer or retention within the aqueous 1K basecoat layer will be dependent upon the nature of the solvent base of the clear coat and other factors including the influence of other additives commonly present in the composition of both layers.
In one aspect of the first embodiment, the secondary amine may be a dialkyl amine.

Question: For `CCN(CC)CO` [methylol adduct of diethylamine], which pKa [1] is on record?
Answer: 8.9

Question: With `OCN1CCCCC1` [methylol adduct of piperidine] as the molecule, how does the pKa [1] read?
Answer: 9.2

Question: With `CC(C)N(CO)C(C)C` [methylol adduct of diisopropylamine] as the molecule, how does the pKa [1] read?
Answer: 9.0

Question: With `CN(C)CCO` [DMEOA, N,N-dimethylethanolamine, reference compound] as the molecule, how does the pKa [1] read?
Answer: 9.2

Question: Which pKa [1] does the source give for `CCCN(CO)CCC` [methylol adduct of di-n-propyl amine] here?
Answer: 8.01

Question: For `OCN1CCCC1` [methylol adduct of pyrrolidine], which pKa [1] is on record?
Answer: 8.9

Question: With `C1CCNC1` [pyrrolidine] as the molecule, how does the pKa [1] read?
Answer: 10.6

Question: For `CCCNCCC` [di-n-propyl amine], which pKa [1] is on record?
Answer: 10.9

Question: What about the logP (physchem) of the same molecule?
Answer: ~1.6

Question: With `CCCCNCCCC` [di-n-butyl amine] as the molecule, how does the logP (physchem) read?
Answer: ~2.8

Question: Which pKa [1] does the source give for `CC(C)(N)CO` [AMP, 2-amino-2-methyl-1-propanol, reference compound] here?
Answer: 9.8

Question: For `CCNC(C)C` [ethyl isopropyl amine], which logP (physchem) is on record?
Answer: 0.93
